Earlier results as cited in patent US9266789B2, “Liquid dicyandiamide and/or alkyl thiophosphoric triamide compositions and their use in agricultural applications” (RHODIA OPERATIONS, priority 2012, dated 2016).

In the case of `N#CNC(=N)N` [Dicyandiamide, 2-cyanoguanidine], the solubility in water is given as “about 41 g/l”.
